# Measurements from US10307458B2, “Peptide as absorption enhancer and composition containing same” (SOONCHUNHYANG UNIVERSITY INDUSTRY ACADEMY COOPERATION …, priority 2014, dated 2019).
# Where no end group is shown, it is not given here.
# Key:
# [1] = in vivo; details: male, Sprague-Dawley, rat, in vivo, inhaled or intranasal, 2.5 mg/kg
# Description: (§1) Male SD (Sprague-Dawley) rats (280-300 g) were provided to adapt to each separate cage of the animal facility at least 2 days. At this point, foods and water were freely allowed to the rats, which were exposed to light for 12 hours and kept in dark for another 12 hours. One day before the testing, the rats were provided with water only and kept from eating food.
# (§2) The peptides of the Preparation Examples or the Example, and mannitol(^3H-Mannitol, 14.2 Ci/mmol, PerkinElmer) were used to prepare the individual preparation groups given as follows:
# (§3) The first preparation group was a control group and prepared as an aqueous solution of 5% (w/v) dextrose containing mannitol without a peptide.
# (§4) The second preparation group was prepared as an aqueous solution of 5% (w/v) dextrose containing mannitol and the FCIGRL peptide of the Preparation Example 1.
# (§5) The third preparation group was prepared as an aqueous solution of 5% (w/v) dextrose containing mannitol and the Ac-FCIGRL peptide of the Preparation Example 2.
# (§6) The fourth preparation group was prepared as an aqueous solution of 5% (w/v) dextrose containing mannitol and the FCIGRL-NH2 peptide of the Example 1.
# (§7) The male SD rats provided above 1. were divided into four groups, each having five male SD rats. The first to fourth preparation groups were nasally administered into the first to fourth rat groups, respectively.
# (§8) At this point, the dosage of each solution was 70 μl per rat, where the dosages of mannitol and each peptide were 20 μCi/kg and 2.5 mg/kg, respectively.
# (§9) Prior to the nasal administration, each rat was anesthetized to implant a cannula into the jugular vein of it. The solution was taken into the nostrils of the rat through a micropipette (Eppendorf) with caution as not to affect the nasal mucous membrane, while the rat was lying on the back to rest its head sideways against the wall.
# (§10) 250 μl of blood was collected from each rat in 10, 20, 40, 60, 120, 180, 240 and 360 minutes after administration of the solution through jugular vein cannulation. The blood was subjected to centrifugal separation at 13,000 rpm for 10 minutes to obtain 100 μl of plasma. A scintillation cocktail solution was added to the plasma. Then, an LS6500 Universal counter (Beckman Coulter, Brea, Calif., USA) was used to measure the radiation quantity for the quantitative analysis of mannitol.
# (§11) The mannitol concentration in blood from the rats of each group is graphed in FIG. 1. Table 1 presents the pharmacokinetic parameters, that is, AUC, Cmax, Tmax, and T1/2 of mannitol.
# [2] = tested on: nasal mucous membrane; experiment: Nasal administration of 3H-mannitol with or without peptide to rats; mannitol concentration in blood (mucous membrane permeability); details: nasal, rats, peptide 2.5 mg/kg
# Description: as §1, §2, §3, §4, §5, §6, §7, §8, §9, §10, §11
# [3] = preparation group containing mannitol and the peptide, for nasal administration
# [4] = buffer solution that is slightly acid (pH 5.0), neutral, and basic; cited from earlier work
compound,measurement,setting,value
"OC[C@@H](O)[C@@H](O)[C@H](O)[C@H](O)CO [Mannitol, mannitol]",AUC(0-t),[1],0.101 ng·h/mL
same,Cmax,[1],0.0306 ± 0.00602 ng/mL
same,Tmax,[1],0.583 h
same,half-life,[1],3.59 ± 0.0515 h
Ac-FCIGRL [Ac-FCIGRL],difference in the blood mannitol concentration versus mannitol alone,[2],no significant difference
Ac-FCIGRL-NH2 [Ac-FCIGRL-NH2],solubility of the peptide,[3],such a low solubility of the peptide as to make nasal administration of the peptide impossible
FCIGRL-NH2 [FCIGRL-NH2],AUC0-360min of mannitol relative to the administration group of mannitol alone,[2]; p<0.01,3.63 times
same,Cmax of mannitol relative to the administration group of mannitol alone,[2]; p<0.01,2.68 times
"H-FCIGRL-OH [FCIGRL, Phe-Cys-Ile-Gly-Arg-Leu]",maintenance of the intact form of peptide over time,[4],cannot maintain the intact form of peptide over time
same,difference in the blood mannitol concentration versus mannitol alone,[2],no significant difference
